Measurements from publication PMC3375286, “Crystal Structures Reveal the Multi-Ligand Binding Mechanism of Staphylococcus aureus ClfB” (PLoS Pathogens, 2012).
Where no end group is shown, it is not given here.

T1: ClfB (Staphylococcus aureus, UniProt O86476)
T1 construct: The fragment of the ClfB gene (corresponding 197–542 aa) was amplified by PCR; His-tag; made in house; host or cells: E. coli BL21
T1 sequence (O86476 197-542): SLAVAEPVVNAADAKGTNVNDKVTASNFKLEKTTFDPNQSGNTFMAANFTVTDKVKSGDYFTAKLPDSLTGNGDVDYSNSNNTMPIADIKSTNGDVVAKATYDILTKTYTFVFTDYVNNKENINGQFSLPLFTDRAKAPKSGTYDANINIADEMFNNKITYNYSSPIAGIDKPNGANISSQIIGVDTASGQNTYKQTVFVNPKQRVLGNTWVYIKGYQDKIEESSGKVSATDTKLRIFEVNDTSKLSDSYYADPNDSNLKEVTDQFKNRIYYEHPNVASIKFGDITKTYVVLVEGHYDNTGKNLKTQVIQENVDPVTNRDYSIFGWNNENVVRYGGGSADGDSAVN

T2: ClfB(197–542) wildtype (Staphylococcus aureus, UniProt O86476)
T2 construct: The fragment of the ClfB gene (corresponding 197–542 aa) was amplified by PCR; His-tag; made in house; host or cells: E. coli BL21
T2 sequence (O86476 197-542): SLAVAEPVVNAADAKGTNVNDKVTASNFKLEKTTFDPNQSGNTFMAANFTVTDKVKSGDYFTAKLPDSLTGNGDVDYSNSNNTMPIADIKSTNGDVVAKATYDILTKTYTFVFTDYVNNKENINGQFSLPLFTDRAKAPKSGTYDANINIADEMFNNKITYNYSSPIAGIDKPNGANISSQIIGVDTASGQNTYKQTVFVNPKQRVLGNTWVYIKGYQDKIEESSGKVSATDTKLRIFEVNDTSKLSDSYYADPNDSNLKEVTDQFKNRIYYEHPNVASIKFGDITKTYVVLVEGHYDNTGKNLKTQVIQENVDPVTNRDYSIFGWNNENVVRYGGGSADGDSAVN

T3: Dermokine (Homo sapiens)
T3 chain: SQSGSSGSGSNGDNN


Key:
ClfB = target: T1, ClfB; assay: SPR (BIAcore T200) alanine scan of 9-residue GSR peptides and the 6-residue peptide on immobilized ClfB; type: binding; details: SPR BIAcore T200, 10°C; ClfB amine-coupled (~5300 RU) on CM5 chip; peptides 31.25-2000 µM in 10 mM HEPES pH 7.4, 150 mM NaCl, 0.005% Tween 20; 30 µl/min; 1:1 Langmuir fit
Method: A. Panel of dermokine peptides. […] Navy, 2000 µM; Magenta, 1000 µM; Dark cyan or dark yellow, 500 µM; Blue, 250 µM; Red, 125 µM; Green, 62.5 µM; Black, 31.25 µM.
The binding affinities between ClfB and the ten 9-amino–acid peptides and the 6-amino-acid peptide were determined by surface plasmon resonance (SPR) using BIAcore T200 instrument (GE Healthcare) at 10°C. The ClfB protein was immobilized to about 5300 Response Unit (RU) on a research-grade CM5 sensor chip in 10 mM sodium acetate, pH 5.0 by standard amine coupling method. The flow cell 1 was left blank as a reference. […] The ligands were allowed to associate for 60 s and dissociate for 120 s. Data were analyzed with the BIAcore T200 evaluation software by fitting to a 1∶1 Langmuir binding fitting model.

ClfB(197–542) wildtype = target: T2, ClfB(197–542) wildtype; assay: SPR (ProteOn XPR36) binding of ClfB(197–542) wild type to immobilized peptide 15 from Dermokine; details: SPR ProteOn XPR36, peptide captured on NLC Sensor Chip (460 RU), 25°C, 10 mM HEPES pH 7.2, 150 mM NaCl; ClfB(197–542) injected at 87.5-700 µM; repeated three times; read-out: dissociation constant (KD)
Method: Firstly, Derm was tested for its interaction with ClfB. To this end, we synthesized a 15-amino-acid-peptide (250–264; […], designated as Derm15 hereafter) derived from Derm and then characterized its binding to ClfB using the SPR (Surface Plasmon Resonance) assay. In the assay, ClfB bound to the peptide with a dissociation constant of 2.37 µM (Figure 7A). […] To understand the molecular mechanism underlying this interaction, we solved the crystal structure of ClfB(208–542) bound to the peptide at 2.5 Å resolution. As expected, Derm15 interacts with ClfB in a nearly identical manner with Fg α(316–328) and CK10(499–512) (Figure 7 B). The ClfB^Arg529 forms a hydrogen bond with […] and the C-terminus of N3 forms an extra strand, which is similar as that in the ClfB-Fg α(316–328) and ClfB-CK10(499–512) complexes (Figure 7 C). Mutagenesis studies were conducted to further verify the binding of Derm15 to ClfB. We replaced the residues ClfB^S236, W522 that participate in interactions with the peptide with alanine respectively. The mutant proteins were purified to homogeneity and tested for their interaction with the Derm peptide using SPR.
Figure 7 Dermokine is a potential ligand of ClfB. […] Red, 700 µM; blue, 350 µM; green, 87.5 µM. […]
Binding of ClfB(197–542) to peptide 15 was assessed by SPR using the ProteOn XPR36 equipment (Bio-Rad Laboratories, Inc.). […]

Dermokine = target: T3, Dermokine; assay: SPR

Molecule	Kd (ClfB) [µM]	other results
GSSGAGSNG [Peptide6]	195	–
GSAGSGSNG [Peptide4]	502	–
GSSGSGANG [Peptide8]	326	–
GASGSGSNG [Peptide3]	1240	–
GSSGSGSNA [Peptide10]	1170	–
GSSGSASNG [Peptide7]	1610	–
GSSGSG [Peptide11]	833	–
GSSASGSNG [Peptide5]	1140	–
ASSGSGSNG [Peptide2]	1600	–
GSSGSGSAG [Peptide9]	403	–
GQSGSSGSGSNGDNN [Derm15]	–	Kd (ClfB(197–542) wildtype): 2.37 µM
Clumping factor B 197-542 (protein) SLAVAEPVVNAADAKGTNVNDKVTASDFKLEKTAFDPNQSGNTFMAANFKVTGQVKSGDYFTAKLPDSVTGNGDVDYSNSNNTMPIADIKSTNGDVVAKATYDILTKTYTFVFTDYVNDKENINGQFSLPLFTDRAKAPKSGTYDANINIADEMFDNKITYNYSSPIAGIDKPNGANISSQIIGVDTASGQNTYKQTVFVNPKQRVLGNTWVYIKGYQDKIEESSGKVSATDTKLRIFEVNDTSKLSDSYYADPNDSNLKEVTGEFKDKISYKYDNVASINFGDINKTYVVLVEGHYDNTGKNLKTQVIQENIDPATGKDYSIFGWNNENVVRYGGGSADGDSAVN	–	Kd (Dermokine): 2.37 µM
